Tests used:
[1] = Anti-obesity test using Zucker fatty rats; assay type: in vivo; conditions: 100 mg/kg oral, once a day over 4 weeks, relative to control group
Source text: Anti-Obesity Test Using Zucker Fatty Rats
Zucker fatty rats are obese rats discovered by Zucker et al., in 1961 as mutants among 13 M rats, which are a hybrid between 13C and M rats. These rats (fa/fa) start to appear distinctly obese from normal broods around the age of 3 weeks. As they age, the weight difference between the fatty rats and normal rats increases. Zucker fatty rats are currently kept by a variety of organizations as simple obesity models, and are readily obtainable.
This test was performed using this rat model to evaluate the anti-obesity action of the compounds of the invention. The preparation method of test samples and the test procedures are described below:
The test samples were prepared in the same manner as in Test Example 2.
Zucker fatty rats and lean rats (both from Charles River Japan) were purchased at the age of 5 weeks. They were divided into groups (10 rats per group) according to body weight when they reached 6 weeks old. After acclimatization, the administration of test samples was initiated when the rats reached 8 weeks old. Test samples were orally administered using an oral gavage so that the compounds of the invention contained in the test samples were given in an amount of 100 mg/kg body weight (test sample dosage: 5 ml/kg body weight). The test samples were administered once a day over 4 weeks at a specific time of day.
As a control, a group of rats were administered with the same amount of 5% aqueous gum arabic solution (5 ml/kg body weight) instead of the test samples.
The rats of all groups were weighed on the last day of administration. The average body weight of the rats of each test group was compared with the average body weight (standard weight) of the rats of the control group to obtain the weight variations (differences). The weight differences were expressed as percentages in relation to the standard weight. The values thus calculated are referred to as “weight change %”. When a weight difference is negative relative to the standard weight, weight change % is shown with “−” (minus).
During the test period, the rats of the respective groups had free access to rat feed (“CRF-1”, manufactured by Oriental Yeast, Co., Ltd.) and water (tap water).

human LPL mRNA = assay: Test for increase in LPL mRNA expression (luciferase assay, HTB-92/p387/p383 cell line); assay type: cell-based; conditions: 120 h, HTB-92/p387/p383 cells, 5 days
Source text: Pharmacological Test 1 Test for Increase in LPL mRNA Expression
A luciferase assay was employed to simply and quickly detect an increase in human LPL mRNA. The principle of the assay is as follows:
Luciferase emits light when reacted with luciferine (substrate). The expression of LPL mRNA is controlled by 5′-UTR and 3′-UTR (promoter regions) of the LPL gene. By introducing the promoter regions of the LPL gene into a commercially available plasmid (for example, that produced by Clonetics Corp.) to produce a plasmid (reporter plasmid) that stably expresses luciferase in human cells, such a plasmid expresses luciferase only under conditions in which LPL mRNA can increase. Therefore, when the substrate is introduced to the expression system and the amount of luciferase expression (luciferase activity) is quantified as the extent of chemiluminescence, the amount of LPL mRNA expression can be estimated.
The test herein was performed as follows: Using a plasmid for the luciferase assay manufactured by Clontech, wherein human LPL 5′-UTR (Enerback, S., et al., Mol. Cell. Biol. 12 (10) (1992): 4622-4633) and 3′-UTR (Wion, K. L., et al., Science 235 (1987): 4796, 1638-1641) had been inserted, human-derived liposarcoma cell line SW872 (ATCC Accession No. HTB-92) was transformed to prepare an HTB-92/p387/p383 cell line, which stably expresses luciferase.
This HTB-92/p387/p383 cell line was introduced into a 225 cm^2 culture flask furnished with a culture medium and cultured at 37° C. in the absence of CO2 until reaching confluence. Leibovitz's L-15 culture medium (containing 10% FBS, 1% GlutaMaxII, 10 μg/ml streptomycin, 1 μg/ml puromycin, 250 μg/ml hygromycin B) was used as the culture medium. After reaching confluence, the cells were collected, plated on 384-well plates to have 20000 cells/well, and cultured with 50 μl/well of the culture medium under the same conditions as above (37° C., absence of CO2). After 3 days of culturing, the culture medium was replaced by 50 μl/well phenol-red-free DMEM (containing 10% FBS, 1% GlutaMax, 10 U/ml penicillin, 10 μg/ml streptomycin, 1 μg/ml puromycin, 250 μg/ml hygromycin, 1 μM dexamethasone, 0.5 μM IBMX; differentiation medium), and the cells were cultured for 5 more days at 37° C. in the presence of CO2 to differentiate.
Furthermore, the culture medium was replaced by a 50 μl/well medium containing a compound of the invention (compound prepared in an Example) as a test substance wherein the compound had been conditioned with DMSO to a specific concentration selected from 10^−4 M to 3×10^−10M. The cells were cultured for 5 days at 37° C. in the presence of CO2.
After 5 days of culturing, a luciferase substrate solution (manufactured by Promega Corporation) was introduced to each well in an amount of 30 μl/well. The cells were left to stand 10 minutes at room temperature, and luciferase activities were measured by a luminometer (a microplate scintilltion counter; The Wallac MicroBeta Trilux, manufactured by Perkin Elmer, Inc.).
Cells that had been cultured and differentiated in a differentiation medium prepared by adding 0.1% DMSO to the above-mentioned DMEM medium (differentiation medium) not containing phenol red were used as a control (i.e., cultured and differentiated for 5 days and then stimulated for 5 days). The luciferase activity of these control cells were measured as above. The EC50 value (the concentration of test substance that can increase the amount of LPL mRNA expression over the control by 50%, unit: M) was calculated based on the straight line obtained by plotting the results of the tests performed using the test substances at varying concentrations. The maximum induction (Max. Ind. values) was calculated according to the following equation: Max. Ind. Value=Lt/Lc wherein Lt represents the maximum luciferase activity occurred in response to test substance stimulation; and Lc represents the value indicating the luciferase activity of the control.

[2] = Therapeutical effect on olive oil-induced triglyceride hyperlipidemia models; assay type: in vivo; conditions: once a day for one week, SD rats, 2 h after olive oil
Procedure: Test of Therapeutical Effect on Olive Oil-Induced Triglyceride Hyperlipidemia Models
To conduct this test, 6-week-old SD rats (purchased from Charles River Japan) were used.
According to the body weight of the test rats when they were 5 weeks old, the test rats were divided into test groups and a control group with 6 rats per group.
A predetermined amount of each compound prepared in the Examples was measured and placed in an agate mortar. While 5% aqueous gum arabic solution was gradually introduced to the mortar, the compound was uniformly ground and suspended. Test samples were prepared by further adding 5% aqueous gum arabic solution gradually. Subsequently, these test samples were subjected to ultrasonic washing for 10 minutes to homogenize. Test samples were prepared as and when necessary.
The rats of the test groups were orally administered with the compounds of the invention such that rats received the compounds in an amount of 10, 30, or 100 mg/kg. The compounds of the invention were formulated as 5% gum arabic suspensions as described above.
The rats of the control group were orally administered with 5% aqueous gum arabic solution (not containing the compounds of the invention) in an amount of 5 ml/kg body weight. Administration was conducted once a day continuously for one week at a specific time of day after the rats reached 6 weeks of age. This test was performed under non-fasting conditions (rats had free access to feed and water), and the rats were fasted after the final administration of the compounds or 5% aqueous gum arabic solution.
Two hours after the final administration, olive oil was orally administered to the rats from both groups in an amount of 3 ml/kg body weight.
Two hours after the olive oil administration, blood was collected from the abdominal aorta of the rats of the respective groups using a heparinized syringe. The plasma was centrifugally separated from the blood at a temperature of 4° C., and the triglyceride level of the plasma was measured. A Hitachi 7170 automatic analyzer was used as the measuring instrument. Using the values measured from the test groups and control group, the decrease (%) in plasma triglyceride level was calculated according to the following equation: Decrease (%) in plasma triglyceride concentration=(1−E/C)×100 wherein E represents the average plasma triglyceride level in each test group; and C represents the average plasma triglyceride level in the control group.

LPL = assay: Test for LPL activity-increasing effect in normal rats (skeletal muscle LPL activity); assay type: in vivo; conditions: every day for 1 week, SD rats, soleus muscle, 4 h after administration
Procedure: Test for LPL Activity-Increasing Effect in Normal Rats
6-week-old SD rats (purchased from Charles River Japan) were used as subjects. The rats were divided into groups according to body weight at the age of 5 weeks. The rats in each test group were orally administered with a 5% gum arabic suspension in an amount of 5 ml/kg of body weight, the suspension containing the test compound of the invention in such an amount that the dose of the compound of the invention became 30 mg/kg of body weight in one group and 100 mg/kg of body weight in another group. The rats in a control group were orally administered with a 5% gum arabic suspension (not containing the test compound of the invention) in an amount of 5 ml/kg of body weight. Each sample suspension was orally administered every day at a specific time of day for 1 week starting when the rats reached the age of 6 weeks.
Four hours after the administration of the sample suspension, skeletal muscle tissues of the rats were collected, then freeze-clamped and stored under liquid nitrogen. LPL activity in the skeletal muscle tissues was measured by the following method.
The soleus muscle was homogenized in a chilled solution of 0.05 mol/L NH4OH—NH4Cl buffer (pH 8.5) containing 0.5 U/mL heparin at 1 mL/100 mg of tissue wet weight. After standing on ice for 60 min with vigorous mixing at intervals of 15 min, the homogenate was centrifuged at 3000 rpm and 4° C. for 10 min and the supernatant was separated.
The substrate solution was prepared by mixing 2 μCi of glycerol tri[1-^14C]oleate, 0.133 g of unlabeled triolein, 0.9 mL of 1% Triton X-100, and 0.9 mL of 4% bovine serum albumin. in 0.2 mol/L Tris-HCl buffer (pH 8.6) and 10.2 mL of 0.2 mol/L Tris-HCl buffer (pH 8.6). The mixture was emulsified by sonication on ice for 3 min.
In a glass test tube, 0.1 mL of the tissue extract, 0.05 mL of heat-inactivated rat serum and 0.15 mL of 4% bovine serum albumin in 0.2 mol/L Tris-HCl buffer (pH 7.4) were mixed. Enzyme reaction was started by adding 0.2 mL of the substrate solution and was carried out for 30 min. at 37° C.
The reaction was stopped by addition of 2 mL of 1.5 mol/L H2SO4/2-propanol (1:40, v/v), and 1 mL of distilled water and 3 mL of hexane were added into the test tube. After vigorously shaking for 10 min. at room temperature, the test tube was centrifuged for 10 min. at 3000 rpm.
The upper layer (3.5 mL) was collected in a new test tube and mixed with 1 mL of 0.1 mol/L KOH.
The test tube was vigorously shaken for 10 min. at room temperature and then centrifuged for 10 min. at 3000 rpm.
After removing the upper layer, 1 mL of the lower layer (water phase) was transferred into a vial for counting, neutralized with 50 μL of 1.3 mol/L HCl and mixed with 4 mL of scintillator. The radioactivity was measured using a liquid scintillation counter.
The LPL activity increase (%) was calculated from the measured values of LPL activity in the control group and test groups according to the following formula: LPL activity increase (%)=(Test group average value)/(Control group average value)×100−100

## COc1cc(-c2cn3ccccc3n2)ccc1OCc1ccccc1 [Example 1, 2-(4-benzyloxy-3-methoxyphenyl)imidazo[1,2-a]pyridine]
[1]
  Weight Change (%): −8%
Human LPL mRNA; Max. Ind. Value=Lt/Lc, maximum luciferase activity over control
  maximal fold induction: 3
Human LPL mRNA; concentration that increases LPL mRNA expression over the control by 50%
  EC50: 6.3 µM
other
  melting point: 128 to 129.5 °C
[2]; 10 mg/kg oral
  Decrease in plasma triglyceride level (%): 26%
[2]; 30 mg/kg oral
  Decrease in plasma triglyceride level (%): 50%
[2]; 100 mg/kg oral
  Decrease in plasma triglyceride level (%): 76%

## COc1cc(-c2c[nH]c(-c3ccc(C(F)(F)F)cc3)n2)ccc1OCc1ccccc1.Cl [Example 95, 4-(4-benzyloxy-3-methoxyphenyl)-2-(4-trifluoromethylphenyl)imidazole]
[1]
  Weight Change (%): −15%
LPL; 30 mg/kg oral
  Increase of skeletal muscle LPL activity compared to control (%): 13%
LPL; 100 mg/kg oral
  Increase of skeletal muscle LPL activity compared to control (%): 25%
other
  melting point: 247 to 249 °C
[2]; 10 mg/kg oral
  Decrease in plasma triglyceride level (%): 28%
[2]; 30 mg/kg oral
  Decrease in plasma triglyceride level (%): 65%
[2]; 100 mg/kg oral
  Decrease in plasma triglyceride level (%): 81%

Source: patent US8895599B2, “Lipoprotein lipase-activating compositions comprising benzene derivates” (Otsuka Pharmaceutical Factory, Inc., priority 2008, dated 2014)
